# Measurements published in US20060241124A1, “Combinations comprising paroxetine and 2- (s) - (4-fluoro-2-methyl-phenyl) -piperazine-1-carboxylic acid [1- (r)- (3,5-bis-trifluoro-2-methyl-phenyl) -ethyl]-methyl amide for treatment of depression and/or anxiety” (priority 2003, published 2006).
# Where a name gives a salt, the structure may show the parent alone.
# Tested on: mongolian gerbils
# Test: gerbil social interaction model (time spent in active social interactions)
# Type: in vivo
# Details: one hour after administration
# Method: Paroxetine hydrochloride hemihydrate (0.3 mg/kg p.o of the paroxetine measured as the free base.), 2-(S)-(4-Fluoro-2-methyl-phenyl)-piperazine-1-carboxylic acid [1-(R)-(3,5-bis-trifluoromethyl-phenyl)-ethyl]-methyl-amide methansulphonate (hereinafter compound A) (0.1 mg/kg i.p of the compound A measured as the free base) and a combination of paroxetine (0.3 mg/kg p.o. of the paroxetine measured as the free base) and compound A (0.1 mg/kg i.p. of the compound A measured as the free base) were administered independently in mongolian gerbils to assess the effect on time spent in active social interactions.
# The results obtained one hour after administration, expressed as a percentage variation of the time spent in active social interactions by each animal in respect to the value obtained by treatment of control animals, are summarised in table 1.
Compound,% variation of the time spent in active social interactions in respect to control animals (0.3 mg/kg p.o. (measured as the free base)) [%],% variation of the time spent in active social interactions in respect to control animals (0.1 mg/kg i.p. (measured as the free base)) [%]
"Fc1ccc([C@@H]2CCNC[C@H]2COc2ccc3c(c2)OCO3)cc1 [Paroxetine hydrochloride hemihydrate, (−) trans-4-(4′-fluorophenyl)3-(3′-4′-methylenedioxyphenoxymethyl)piperidine]",−2,–
"CS(=O)(=O)O.Cc1cc(F)ccc1[C@H]1CNCCN1C(=O)N(C)[C@H](C)c1cc(C(F)(F)F)cc(C(F)(F)F)c1 [Compound A, 2-(S)-(4-Fluoro-2-methyl-phenyl)-piperazine-1-carboxylic acid [1-(R)-(3,5-bis-trifluoromethyl-phenyl)-ethyl]-methyl-amide methansulphonate]",–,−8
